What all share (test): In vitro antibacterial activity, microtitration dilution method (MIC)
What all share (type): cell-based

For assay [1], the system named is Streptococcus pyogenes C-203. Conditions: C203; Streptococcus pyogenes C-203, microtitration dilution; read-out: Minimal Inhibitory Concentration MIC. An excerpt: (§1) The compounds of the invention display antibacterial activity when tested by the microtitration dilution method as described in Heifetz, et al, Antimicr. Agents & Chemoth., 6, 124 (1974), which is incorporated herein by reference. By use of this method, the followed minimum inhibitory concentration values (MICs in μg/mL) were obtained for representative compounds of the invention.

For assay [2], the system named is Enterobacter cloacae MA 2646.
From the text: as §1

The subject of assay [3] is Escherichia coli Vogel. Conditions: Escherichia coli Vogel, microtitration dilution; read-out: Minimal Inhibitory Concentration MIC.
From the text: as §1

Assay [4] relates to Staphylococcus aureus H 228. To be noted: H228; Staphylococcus aureus H 228, microtitration dilution; read-out: Minimal Inhibitory Concentration MIC.
From the text: as §1

Assay [5] deals with Streptococcus faecalis MGH-2. To be noted: Enterococcus faecalis, MGH2; Streptococcus faecalis MGH-2, microtitration dilution; read-out: Minimal Inhibitory Concentration MIC. An excerpt: (§2) Agents & Chemoth., 6, 124 (1974), which is incorporated herein by reference.
Assay [6] relates to Staphylococcus aureus UC-76. Conditions: UC76; Staphylococcus aureus UC-76, microtitration dilution; read-out: Minimal Inhibitory Concentration MIC.
From the text: as §2

Assay [7] has as its system Klebsiella pneumoniae MGH-2.
From the text: as §2

The subject of assay [8] is Proteus rettgeri M 1771. To be noted: Providencia rettgeri, M1771; Proteus rettgeri M 1771, microtitration dilution; read-out: Minimal Inhibitory Concentration MIC.
From the text: as §2

For assay [9], the system named is Streptococcus pneumoniae SV-1. To be noted: SV1; Streptococcus pneumoniae SV-1, microtitration dilution; read-out: Minimal Inhibitory Concentration MIC.
From the text: as §2

Assay [10] concerns Pseudomonas aeruginosa UI-18. To be noted: UI18; Pseudomonas aeruginosa UI-18, microtitration dilution; read-out: Minimal Inhibitory Concentration MIC.
From the text: as §2

The mark [11] stands for this setting: MA2646, Enterobacter cloacae MA 2646, microtitration dilution, read-out: Minimal Inhibitory Concentration MIC.
Setting [12] is: Klebsiella pneumoniae, MGH2, read-out: Minimal Inhibitory Concentration MIC.
[13] abbreviates: MGH2, Klebsiella pneumoniae MGH-2, microtitration dilution, read-out: Minimal Inhibitory Concentration MIC.

Molecules are shown by their SMILES. Converted amounts (≈) assume the structure as drawn. Read-outs that look alike come from different tables or passages of the source.

Consider `Cc1c(F)c(N2CC[C@@H]([C@H](C)N)C2)nc2c1c(=O)c(C(=O)O)cn2-c1ccc(F)cc1F` [Ex. 23, 3R, 1'S-7-[3-(1-Aminoethyl)-1-pyrrolidinyl]-1-(2,4-difluorophenyl)-6-fluoro-1,4-dihydro-5-methyl-4-oxo-1,8-naphthyridine carboxylic acid], for which the MIC in assay [1] came to 0.003 µg/mL (≈ 0.00672 µM); in [2] (setting [11]), 0.2 µg/mL (≈ 0.448 µM); in assay [3], 0.1 µg/mL (≈ 0.224 µM); in [4], 0.006 µg/mL (≈ 0.0134 µM); in [5], 0.013 µg/mL (≈ 0.0291 µM); in assay [6] it was 0.003 µg/mL (≈ 0.00672 µM). The MIC was determined as 0.1 µg/mL (≈ 0.224 µM) in assay [7] (setting [12]), 0.2 µg/mL (≈ 0.448 µM) in [8], 0.003 µg/mL (≈ 0.00672 µM) in [9] and 0.2 µg/mL (≈ 0.448 µM) in assay [10].

Consider `Cc1c(F)c(N2CCC(N)C2)cc2c1c(=O)c(C(=O)O)cn2C1CC1` (stereo not drawn) [Ex. 8, 7-(3-Amino-1-pyrrolidinyl)-1-cyclopropyl-6-fluoro-1,4-dihydro-5-methyl-4-oxo-3-quinolinecarboxylic acid], for which the MIC amounted to 0.025 µg/mL (≈ 0.0724 µM) in assay [1]; 0.05 µg/mL (≈ 0.145 µM) in assay [2] (Enterobacter cloacae, MA2646, read-out: Minimal Inhibitory Concentration MIC); 0.025 µg/mL (≈ 0.0724 µM) in assay [3]; 0.1 µg/mL (≈ 0.29 µM) in [4]; 0.4 µg/mL (≈ 1.16 µM) in [5]; 0.025 µg/mL (≈ 0.0724 µM) in assay [6]. Besides, the MIC in [7] (setting [13]) stood at 0.1 µg/mL (≈ 0.29 µM); in [8], 0.1 µg/mL (≈ 0.29 µM); in assay [9] it was 0.013 µg/mL (≈ 0.0376 µM); in [10], 0.4 µg/mL (≈ 1.16 µM).

On to `Cc1c(F)c(N2CCC(N)C2)c(F)c2c1c(=O)c(C(=O)O)cn2-c1ccc(F)cc1F` (stereo not drawn) [Ex. 15, 7(3-Amino-1-pyrrolidinyl)-6,8-difluoro-1-(2,4-difluorophenyl)-1,4-dihydro-5-methyl-4-oxo-3-quinolinecarboxylic acid], for which the MIC in assay [1] stood at 0.1 µg/mL (≈ 0.23 µM); in [2] (setting [11]), 0.025 µg/mL (≈ 0.0574 µM); in assay [3], 0.025 µg/mL (≈ 0.0574 µM); in [4], 0.05 µg/mL (≈ 0.115 µM); in [5], 0.2 µg/mL (≈ 0.459 µM); in [6], 0.025 µg/mL (≈ 0.0574 µM). Besides, the MIC in [7] (setting [12]) was 0.1 µg/mL (≈ 0.23 µM); in assay [8], 0.2 µg/mL (≈ 0.459 µM); in assay [9], 0.1 µg/mL (≈ 0.23 µM); in [10], 0.8 µg/mL (≈ 1.84 µM).

Consider `Cc1c(F)c(N2CCNC(C)C2)cc2c1c(=O)c(C(=O)O)cn2C1CC1` (stereo not drawn) [Ex. 7, 1-Cyclopropyl-6-fluoro-1,4-dihydro-5-methyl-7-(3-methyl-1-piperazinyl)-4-oxo-3-quinolinecarboxylic acid], for which the MIC in assay [1] worked out at 0.05 µg/mL (≈ 0.139 µM); in assay [2] (setting [11]) it was 0.025 µg/mL (≈ 0.0696 µM); in [3], 0.013 µg/mL (≈ 0.0362 µM); in [4], 0.1 µg/mL (≈ 0.278 µM); in [5] it was 0.1 µg/mL (≈ 0.278 µM); in assay [6], 0.025 µg/mL (≈ 0.0696 µM). Further, the MIC in [7] (setting [13]) was 0.05 µg/mL (≈ 0.139 µM); in [8], 0.2 µg/mL (≈ 0.556 µM); in assay [9] it was 0.025 µg/mL (≈ 0.0696 µM); in assay [10] it was 0.8 µg/mL (≈ 2.23 µM).

As to `Cc1c(F)c(N2CCNCC2)cc2c1c(=O)c(C(=O)O)cn2-c1ccc(F)cc1F` [Ex. 17, 6-Fluoro-1-(2,4-difluorophenyl)-1,4-dihydro-5-methyl-4-oxo-7-(1-piperazinyl)-3-quinolinecarboxylic acid], the MIC in [1] was 0.1 µg/mL (≈ 0.24 µM); in assay [2] (setting [11]), 0.05 µg/mL (≈ 0.12 µM); in [3] it was 0.05 µg/mL (≈ 0.12 µM); in assay [4], 0.1 µg/mL (≈ 0.24 µM); in [5], 0.2 µg/mL (≈ 0.479 µM); in assay [6], 0.025 µg/mL (≈ 0.0599 µM). Moreover, the MIC in [7] (setting [13]) was determined as 0.1 µg/mL (≈ 0.24 µM); in [8], 0.2 µg/mL (≈ 0.479 µM); in assay [9] it was 0.05 µg/mL (≈ 0.12 µM); in assay [10] it was 0.8 µg/mL (≈ 1.92 µM).

Consider `Cc1c(F)c(N2CCNCC2)c(F)c2c1c(=O)c(C(=O)O)cn2-c1ccc(F)cc1F` [Ex. 14, 6,8-Difluoro-1-(2,4-difluorophenyl)-1,4-dihydro-5-methyl-4-oxo-7-(1-piperazinyl)-3-quinolinecarboxylic acid], for which the MIC in assay [1] was 0.4 µg/mL (≈ 0.919 µM); in assay [2] (setting [11]), 0.1 µg/mL (≈ 0.23 µM); in assay [3], 0.05 µg/mL (≈ 0.115 µM); in [4], 0.2 µg/mL (≈ 0.459 µM); in assay [5] it was 0.4 µg/mL (≈ 0.919 µM); in assay [6] it was 0.05 µg/mL (≈ 0.115 µM). The MIC in assay [7] (setting [13]) turned out to be 0.4 µg/mL (≈ 0.919 µM); in assay [8], 0.4 µg/mL (≈ 0.919 µM); in assay [9], 0.4 µg/mL (≈ 0.919 µM); in [10], 0.8 µg/mL (≈ 1.84 µM).
